Results published in PMC7153899, “Anti-hyperglycemic activity of myricetin, through inhibition of DPP-4 and enhanced GLP-1 levels, is attenuated by co-ingestion with lectin-rich protein” (PLoS ONE, 2020).

Biological target: T1, Dipeptidyl peptidase-4 (DPP-4) (Homo sapiens, UniProt P27487)
T1 construct: gene DPP4; recombinant DPP-4 (human)
Assay: colorimetric enzyme assay with recombinant human DPP-4, gly-pro p-nitroanilide substrate, absorbance […] nm
Format: biochemical

T1 sequence (P27487 39-766): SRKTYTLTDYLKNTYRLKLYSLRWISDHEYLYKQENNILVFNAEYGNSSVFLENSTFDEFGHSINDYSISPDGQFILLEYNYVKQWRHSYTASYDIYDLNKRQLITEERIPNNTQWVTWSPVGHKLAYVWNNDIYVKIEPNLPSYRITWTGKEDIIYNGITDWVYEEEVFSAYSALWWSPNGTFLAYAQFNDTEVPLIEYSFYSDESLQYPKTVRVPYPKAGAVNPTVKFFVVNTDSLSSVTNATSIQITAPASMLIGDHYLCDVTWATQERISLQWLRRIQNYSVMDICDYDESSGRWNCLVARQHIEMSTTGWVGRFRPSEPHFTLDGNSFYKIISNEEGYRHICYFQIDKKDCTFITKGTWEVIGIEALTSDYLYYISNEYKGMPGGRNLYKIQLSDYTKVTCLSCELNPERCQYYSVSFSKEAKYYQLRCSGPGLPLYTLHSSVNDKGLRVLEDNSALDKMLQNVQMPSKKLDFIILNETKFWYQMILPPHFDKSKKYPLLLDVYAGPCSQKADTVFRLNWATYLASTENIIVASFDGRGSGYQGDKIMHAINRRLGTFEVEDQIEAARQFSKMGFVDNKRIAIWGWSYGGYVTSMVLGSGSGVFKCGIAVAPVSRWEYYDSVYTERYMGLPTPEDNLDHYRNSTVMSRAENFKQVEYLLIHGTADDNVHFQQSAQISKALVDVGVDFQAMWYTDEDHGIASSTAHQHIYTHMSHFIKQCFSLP

IC50: 4.8 ± 0.36 µM
Compound: O=c1c(O)c(-c2cc(O)c(O)c(O)c2)oc2cc(O)cc(O)c12 [myricetin]
